Results as given in ChEMBL document CHEMBL3124815, “Discovery of a selective kinase inhibitor (TAK-632) targeting pan-RAF inhibition: design, synthesis, and biological evaluation of C-7-substituted 1,3-benzothiazole derivatives” (J Med Chem, 2013).
Values belong to the compound of their own block, whether it stands above or below them.

Columns and labels:
[1] = molecular target: T1, Serine/threonine-protein kinase B-raf (Homo sapiens, UniProt P15056, V600E); test: Inhibition of BRAF V600E mutant in human HT-29 cells assessed as phosphorylation of MEK; assay type: cell-based
T1 sequence (P15056 2-766 V600E limits assumed): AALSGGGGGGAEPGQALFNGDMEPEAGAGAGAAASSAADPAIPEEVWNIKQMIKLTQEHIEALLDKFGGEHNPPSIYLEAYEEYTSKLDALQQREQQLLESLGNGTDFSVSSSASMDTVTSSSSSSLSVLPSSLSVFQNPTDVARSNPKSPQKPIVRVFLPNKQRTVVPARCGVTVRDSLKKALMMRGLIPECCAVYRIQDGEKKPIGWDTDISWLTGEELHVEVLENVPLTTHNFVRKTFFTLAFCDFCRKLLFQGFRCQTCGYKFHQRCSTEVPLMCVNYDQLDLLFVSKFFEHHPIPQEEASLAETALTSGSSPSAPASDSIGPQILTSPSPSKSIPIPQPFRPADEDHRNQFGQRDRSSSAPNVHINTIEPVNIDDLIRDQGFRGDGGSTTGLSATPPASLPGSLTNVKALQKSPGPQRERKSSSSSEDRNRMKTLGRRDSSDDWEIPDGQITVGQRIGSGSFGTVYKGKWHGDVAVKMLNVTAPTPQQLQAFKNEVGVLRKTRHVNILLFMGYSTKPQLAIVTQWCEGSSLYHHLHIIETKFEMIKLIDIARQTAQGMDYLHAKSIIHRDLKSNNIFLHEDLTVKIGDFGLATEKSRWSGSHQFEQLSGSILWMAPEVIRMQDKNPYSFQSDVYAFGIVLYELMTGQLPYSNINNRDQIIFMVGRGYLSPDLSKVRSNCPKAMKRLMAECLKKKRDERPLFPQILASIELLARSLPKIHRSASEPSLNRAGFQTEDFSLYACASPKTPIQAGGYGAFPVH

Mus musculus = test: AUC (0 to 8 hrs) in mouse at 10 mg/kg, po; assay type: ADME, organism-based, Blood; set-up: time < 8 hr, dose 10 mg/kg, route oral; conditions: in vivo
Homo sapiens = species: Homo sapiens; test: Selectivity factor, ratio of IC50 for VEGFR2 (unknown origin) to IC50 for N-terminal FLAG-tagged recombinant BRAF-V600E (unknown origin) expressed in baculovirus system
[2] = molecular target: T2, Vascular endothelial growth factor receptor 2 (Homo sapiens, UniProt P35968); test: Inhibition of VEGFR2 (unknown origin)
T2 sequence (P35968 whole entry): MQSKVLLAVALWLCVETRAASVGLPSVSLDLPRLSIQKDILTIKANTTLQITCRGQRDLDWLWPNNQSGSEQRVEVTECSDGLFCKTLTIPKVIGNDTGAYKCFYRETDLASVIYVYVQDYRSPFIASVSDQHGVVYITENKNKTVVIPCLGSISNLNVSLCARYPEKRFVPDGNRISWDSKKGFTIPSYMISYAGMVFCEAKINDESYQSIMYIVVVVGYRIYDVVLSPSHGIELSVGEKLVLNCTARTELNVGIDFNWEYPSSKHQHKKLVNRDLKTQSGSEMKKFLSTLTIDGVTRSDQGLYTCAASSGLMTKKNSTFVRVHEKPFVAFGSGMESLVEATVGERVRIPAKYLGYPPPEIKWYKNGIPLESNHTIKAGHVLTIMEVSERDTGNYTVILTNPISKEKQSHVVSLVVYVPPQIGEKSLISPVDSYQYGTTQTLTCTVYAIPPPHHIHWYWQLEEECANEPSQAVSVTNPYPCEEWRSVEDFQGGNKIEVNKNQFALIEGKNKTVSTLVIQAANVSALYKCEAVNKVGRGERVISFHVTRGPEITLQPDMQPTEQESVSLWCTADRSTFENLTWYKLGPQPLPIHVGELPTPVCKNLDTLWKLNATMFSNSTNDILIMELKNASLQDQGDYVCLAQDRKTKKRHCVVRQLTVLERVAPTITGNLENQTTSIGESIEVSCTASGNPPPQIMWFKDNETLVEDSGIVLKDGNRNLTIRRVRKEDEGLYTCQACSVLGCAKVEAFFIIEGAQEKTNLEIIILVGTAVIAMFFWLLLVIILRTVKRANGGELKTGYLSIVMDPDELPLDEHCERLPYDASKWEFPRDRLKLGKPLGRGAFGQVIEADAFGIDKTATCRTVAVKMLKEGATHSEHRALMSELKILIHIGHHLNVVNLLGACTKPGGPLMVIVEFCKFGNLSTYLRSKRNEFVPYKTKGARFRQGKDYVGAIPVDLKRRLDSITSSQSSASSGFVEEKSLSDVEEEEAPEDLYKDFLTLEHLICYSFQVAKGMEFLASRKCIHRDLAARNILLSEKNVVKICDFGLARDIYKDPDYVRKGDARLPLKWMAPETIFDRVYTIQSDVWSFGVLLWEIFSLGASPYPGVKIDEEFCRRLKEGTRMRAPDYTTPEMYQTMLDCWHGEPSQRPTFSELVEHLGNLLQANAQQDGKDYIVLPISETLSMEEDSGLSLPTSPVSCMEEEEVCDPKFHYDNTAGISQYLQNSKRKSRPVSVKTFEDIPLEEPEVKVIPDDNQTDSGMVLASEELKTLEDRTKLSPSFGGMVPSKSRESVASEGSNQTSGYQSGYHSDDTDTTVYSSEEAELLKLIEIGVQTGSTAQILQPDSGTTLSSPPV

[3] = molecular target: T1, Serine/threonine-protein kinase B-raf; test: Inhibition of BRAF V600E mutant (unknown origin)
[4] = molecular target: T1, Serine/threonine-protein kinase B-raf; test: Inhibition of N-terminal FLAG-tagged recombinant BRAF V600E mutant (unknown origin) expressed in baculovirus system preincubated for 10 mins before substrate addition measured after 20 mins by scintillation counting
[5] = molecular target: T2, Vascular endothelial growth factor receptor 2; test: Inhibition of VEGFR2 (unknown origin) using biotinylated poly-GluTyr (4:1) as substrate pretreated for 5 mins before substrate addition measured after overnight incubation

SMILES: CC(C)(C#N)c1cccc(C(=O)Nc2cccc(Oc3ccc4nc(NC(=O)C5CC5)sc4c3C#N)c2)c1
IC50 [1]: 34 nM | AUC (Mus musculus): 149 ng·h/mL | Ratio IC50 (Homo sapiens): 5.8

SMILES: N#Cc1c(Oc2ccc(F)c(NC(=O)Nc3cccc(C(F)(F)F)c3)c2)ccc2nc(NC(=O)C3CC3)sc12
IC50 [1]: 22 nM | Ratio IC50 (Homo sapiens): 15

SMILES: N#Cc1c(Oc2cccc(NC(=O)Cc3ccccc3C(F)(F)F)c2)ccc2nc(NC(=O)C3CC3)sc12
IC50 [1]: > 500 nM | AUC (Mus musculus): 255 ng·h/mL | Ratio IC50 (Homo sapiens): 7.1

IC50 [2]: 2.8 nM | IC50 [3]: 5.6 nM
SMILES: N#CC1(c2cccc(C(=O)Nc3cc(Oc4ccc5nc(NC(=O)C6CC6)sc5n4)ccc3F)c2Cl)CC1

SMILES: N#Cc1c(Oc2cccc(NC(=O)Nc3ccccc3C(F)(F)F)c2)ccc2nc(NC(=O)C3CC3)sc12
IC50 [1]: > 500 nM | AUC (Mus musculus): 58 ng·h/mL | Ratio IC50 (Homo sapiens): 6.3

SMILES: N#Cc1c(Oc2cccc(NC(=O)Nc3cccc(C(F)(F)F)c3)c2)ccc2nc(NC(=O)C3CC3)sc12
IC50 [1]: 75 nM | IC50 [4]: 18 nM | AUC (Mus musculus): 99 ng·h/mL | Ratio IC50 (Homo sapiens): 19 | IC50 [5]: 350 nM

SMILES: CC(C)(C#N)c1cccc(C(=O)Nc2cccc(Oc3ccc4nc(NC(=O)C5CC5)sc4c3CO)c2)c1
IC50 [1]: 170 nM | Ratio IC50 (Homo sapiens): 0.31

SMILES: COC(=O)c1c(Oc2cccc(NC(=O)c3cccc(C(C)(C)C#N)c3)c2)ccc2nc(NC(=O)C3CC3)sc12
IC50 [1]: 24 nM | Ratio IC50 (Homo sapiens): 2.8

SMILES: CC(C)(C#N)c1cccc(C(=O)Nc2cccc(Oc3ccc4nc(NC(=O)C5CC5)sc4c3C(=O)O)c2)c1
IC50 [4]: 290 nM | Ratio IC50 (Homo sapiens): 0.051 | IC50 [5]: 15 nM

SMILES: N#Cc1c(Oc2cccc(NC(=O)Cc3ccc(C(F)(F)F)cc3)c2)ccc2nc(NC(=O)C3CC3)sc12
IC50 [1]: 320 nM | AUC (Mus musculus): 123 ng·h/mL | Ratio IC50 (Homo sapiens): 20

SMILES: N#Cc1c(Oc2ccc(F)c(NC(=O)Nc3ccc(C(F)(F)F)cc3)c2)ccc2nc(NC(=O)C3CC3)sc12
IC50 [1]: 81 nM | AUC (Mus musculus): 158 ng·h/mL | Ratio IC50 (Homo sapiens): 25

SMILES: CC(C)(C#N)c1cccc(C(=O)Nc2cccc(Oc3ccc4nc(NC(=O)C5CC5)sc4c3[N+](=O)[O-])c2)c1
IC50 [1]: 29 nM | Ratio IC50 (Homo sapiens): 2.8

SMILES: N#Cc1c(Oc2cccc(NC(=O)Nc3ccc(C(F)(F)F)cc3)c2)ccc2nc(NC(=O)C3CC3)sc12
IC50 [1]: 110 nM | AUC (Mus musculus): 431 ng·h/mL | Ratio IC50 (Homo sapiens): 18

SMILES: CC(C)(C#N)c1cccc(C(=O)Nc2cccc(Oc3ccc4nc(NC(=O)C5CC5)sc4c3)c2)c1
Ratio IC50 (Homo sapiens): 0.56

SMILES: N#Cc1c(Oc2cccc(NC(=O)Cc3cccc(C(F)(F)F)c3)c2)ccc2nc(NC(=O)C3CC3)sc12
IC50 [1]: 360 nM | AUC (Mus musculus): 3780 ng·h/mL | Ratio IC50 (Homo sapiens): 120
